Consider 3 compounds from article PMC5641952 (ACS Medicinal Chemistry Letters, 2017).

SMILES strings stand for the structures.

This test addresses MDM2 (Homo sapiens, UniProt Q00987). Briefly: Fluorescence polarization. To be noted: FP assay.
For `O=C(O)c1[nH]c2cc(Cl)ccc2c1C1C(=O)NCCCCCCCCCCCCCC(=O)N1Cc1ccc(F)cc1` (stereo not drawn) [1d], the “activity toward MDM2 (in words)” value is given as “only slightly or not active at all”.

`CCOC(=O)c1[nH]c2cc(Cl)ccc2c1C1C(=O)NCCCCCCCCCCCCCCCCCCCC(=O)N1Cc1ccc(OCc2ccc(Cl)c(Cl)c2)cc1` (stereo not drawn) [2k]: the “activity toward MDM2 (in words)” value was “orders of magnitude less reactive or inactive”.

Turning to `O=C(O)c1[nH]c2cc(Cl)ccc2c1C1C(=O)NCCCCCCCCCCCCCC(=O)N1Cc1ccc(Cl)cc1` (stereo not drawn) [1f], the “activity toward MDM2 (in words)” value was “only slightly or not active at all”.
